# From the NIST ThermoML archive (doi:10.1016/j.fluid.2015.07.030)
# Numbers after ± are expanded uncertainties.
# Legend:
# [1] = Liquid; for mass density: 95.99 kPa, Vibrating tube method; for vapor or sublimation pressure: Ebulliometric method (Recirculating still)
# [2] = refractive index (other wavelength) (dimensionless); conditions: 95.99 kPa, Liquid, Wavelength=404.7 nm, Standard Abbe refractometry
# [3] = xn = mol fraction of the nth substance listed; conditions: 293.15 K; 95.99 kPa; Liquid; Vibrating tube method; x1 = 1
# [4] = refractive index (other wavelength) (dimensionless); xn = mol fraction of the nth substance listed; conditions: 95.99 kPa, Liquid, Standard Abbe refractometry, x1 = 1
smiles,measurement,setting,value
OCCOCCOCCO [triethylene glycol],mass density,[1]; 293.15 K,1123.12 ± 0.25 kg/m3
same,mass density,[1]; 298.15 K,1119.01 ± 0.25 kg/m3
same,mass density,[1]; 303.15 K,1114.79 ± 0.25 kg/m3
same,mass density,[1]; 308.15 K,1110.81 ± 0.25 kg/m3
same,mass density,[1]; 313.15 K,1106.7 ± 0.25 kg/m3
same,vapor or sublimation pressure,[1]; 535.65 K,53.33 ± 0.48 kPa
same,vapor or sublimation pressure,[1]; 543.87 K,66.66 ± 0.67 kPa
same,vapor or sublimation pressure,[1]; 551.33 K,79.99 ± 0.8 kPa
same,vapor or sublimation pressure,[1]; 559.01 K,95.99 ± 1 kPa
same,refractive index,[2]; 293.15 K,1.45619 ± 0.00033 [middle of 9 runs]
same,refractive index,[2]; 298.15 K,1.45447 ± 0.00033 [middle of 9 runs]
same,refractive index,[2]; 303.15 K,1.45273 ± 0.00033 [middle of 9 runs]
same,refractive index,[2]; 308.15 K,1.45106 ± 0.00033 [middle of 9 runs]
same,refractive index,[2]; 313.15 K,1.44927 ± 0.00033 [middle of 9 runs]
O [water],vapor or sublimation pressure,[1]; 356.16 K,53.33 ± 0.37 kPa
same,vapor or sublimation pressure,[1]; 361.89 K,66.66 ± 0.5 kPa
same,vapor or sublimation pressure,[1]; 366.73 K,79.99 ± 0.6 kPa
same,vapor or sublimation pressure,[1]; 371.71 K,95.99 ± 0.77 kPa
same,refractive index,[2]; 293.15 K,1.33325 ± 0.00031 [middle of 9 runs]
same,refractive index,[2]; 298.15 K,1.33262 ± 0.00031 [middle of 9 runs]
same,refractive index,[2]; 303.15 K,1.33203 ± 0.00031 [middle of 9 runs]
same,refractive index,[2]; 308.15 K,1.33136 ± 0.00031 [middle of 9 runs]
same,refractive index,[2]; 313.15 K,1.33066 ± 0.00031 [middle of 9 runs]
O [water] + OCCOCCOCCO,mass density,[3],998.27 ± 0.2 kg/m3
same,refractive index,"[4]; 293.15 K, Wavelength=404.7 nm",1.34287 ± 0.00031
same,refractive index,"[4]; 293.15 K, Wavelength=435.8 nm",1.34033 ± 0.00031
same,refractive index,"[4]; 293.15 K, Wavelength=486.1 nm",1.33728 ± 0.00031
same,refractive index,"[4]; 293.15 K, Wavelength=587.6 nm",1.33325 ± 0.00031
same,refractive index,"[4]; 293.15 K, Wavelength=589.3 nm",1.332 ± 0.00031
same,refractive index,"[4]; 293.15 K, Wavelength=632.8 nm",1.33194 ± 0.00031
same,refractive index,"[4]; 293.15 K, Wavelength=644 nm",1.33164 ± 0.00031
same,refractive index,"[4]; 293.15 K, Wavelength=706.5 nm",1.33018 ± 0.00031
same,refractive index,"[4]; 298.15 K, Wavelength=404.7 nm",1.34223 ± 0.00031
same,refractive index,"[4]; 298.15 K, Wavelength=435.8 nm",1.33969 ± 0.00031
same,refractive index,"[4]; 298.15 K, Wavelength=486.1 nm",1.33606 ± 0.00031
same,refractive index,"[4]; 298.15 K, Wavelength=546.1 nm",1.33405 ± 0.00033
same,refractive index,"[4]; 298.15 K, Wavelength=587.6 nm",1.33262 ± 0.00031
same,refractive index,"[4]; 298.15 K, Wavelength=589.3 nm",1.33257 ± 0.00031
same,refractive index,"[4]; 298.15 K, Wavelength=632.8 nm",1.33132 ± 0.00031
same,refractive index,"[4]; 298.15 K, Wavelength=644 nm",1.33103 ± 0.00031
same,refractive index,"[4]; 298.15 K, Wavelength=706.5 nm",1.32956 ± 0.00031
same,refractive index,"[4]; 303.15 K, Wavelength=404.7 nm",1.3416 ± 0.00031
same,refractive index,"[4]; 303.15 K, Wavelength=435.8 nm",1.33908 ± 0.00031
same,refractive index,"[4]; 303.15 K, Wavelength=486.1 nm",1.33606 ± 0.00031
same,refractive index,"[4]; 303.15 K, Wavelength=546.1 nm",1.33344 ± 0.00031
same,refractive index,"[4]; 303.15 K, Wavelength=587.6 nm",1.33203 ± 0.00031
same,refractive index,"[4]; 303.15 K, Wavelength=589.3 nm",1.33198 ± 0.00031
same,refractive index,"[4]; 303.15 K, Wavelength=632.8 nm",1.33074 ± 0.00031
same,refractive index,"[4]; 303.15 K, Wavelength=644 nm",1.33045 ± 0.00031
same,refractive index,"[4]; 303.15 K, Wavelength=706.5 nm",1.32898 ± 0.00031
same,refractive index,"[4]; 308.15 K, Wavelength=404.7 nm",1.34092 ± 0.00031
same,refractive index,"[4]; 308.15 K, Wavelength=435.8 nm",1.33843 ± 0.00031
same,refractive index,"[4]; 308.15 K, Wavelength=486.1 nm",1.33538 ± 0.00031
same,refractive index,"[4]; 308.15 K, Wavelength=546.1 nm",1.33278 ± 0.00031
same,refractive index,"[4]; 308.15 K, Wavelength=587.6 nm",1.33136 ± 0.00031
same,refractive index,"[4]; 308.15 K, Wavelength=589.3 nm",1.33131 ± 0.00031
same,refractive index,"[4]; 308.15 K, Wavelength=632.8 nm",1.33007 ± 0.00031
same,refractive index,"[4]; 308.15 K, Wavelength=644 nm",1.32979 ± 0.00031
same,refractive index,"[4]; 308.15 K, Wavelength=706.5 nm",1.32834 ± 0.00031
same,refractive index,"[4]; 313.15 K, Wavelength=404.7 nm",1.3402 ± 0.00031
same,refractive index,"[4]; 313.15 K, Wavelength=435.8 nm",1.3377 ± 0.00031
same,refractive index,"[4]; 313.15 K, Wavelength=486.1 nm",1.33466 ± 0.00031
same,refractive index,"[4]; 313.15 K, Wavelength=546.1 nm",1.33207 ± 0.00031
same,refractive index,"[4]; 313.15 K, Wavelength=587.6 nm",1.33066 ± 0.00031
same,refractive index,"[4]; 313.15 K, Wavelength=589.3 nm",1.33061 ± 0.00031
same,refractive index,"[4]; 313.15 K, Wavelength=632.8 nm",1.32937 ± 0.00031
same,refractive index,"[4]; 313.15 K, Wavelength=644 nm",1.32908 ± 0.00031
same,refractive index,"[4]; 313.15 K, Wavelength=706.5 nm",1.32764 ± 0.00031
